Data: ChEMBL document CHEMBL1158910, “The gastric cytoprotective effect of several sesquiterpene lactones” (J Nat Prod, 1990)
Active and inactive are the calls of the source. No cut-off for these calls is given here.

Each compound was assayed on Rattus norvegicus (assay: Antiulcerogenic activity in Wistar rat assessed as cytoprotection against ethanol-induced gastric lesions administered 60 mins before ethanol challenge). Details: Stomach.
Type: functional, organism-based
`C=C1C(=O)O[C@@H]2[C@H]1CC[C@H](C)[C@@]1(O)C=CC(=O)[C@@]21C` was tested, and the Activity was “Dose-dependent effect”.
With `C=C1C(=O)O[C@@H]2[C@H]3C(C)=CC(=O)C3=C(C)CC[C@@H]12` the Activity was “Dose-dependent effect”.

Each compound was assayed on Rattus norvegicus (assay: Antiulcerogenic activity in Wistar rat assessed as cytoprotection against ethanol-induced gastric lesions at 40 mg/kg administered 60 mins before ethanol challenge). Details: Stomach.
Type: functional, organism-based
Set-up: dose 40 mg/kg
In the case of `C=C1C(=O)O[C@@H]2[C@H]1CC[C@H](C)[C@@]1(O)C=CC(=O)[C@@]21C`, the Activity was “Active”.
In the case of `C=C1C(=O)O[C@@H]2[C@H]3C(=C)[C@@H](O)C[C@H]3C(=C)C[C@H](OC(=O)/C(C)=C\C)[C@@H]12`, the Activity was “Active”.
With `CC1=CC(=O)C2=C(C)CC[C@@H]3[C@H](OC(=O)[C@H]3C)[C@@H]12` the Activity was “inactive”.
`C=C1C(=O)O[C@H]2[C@H]1CCC(C)=C1C[C@H]3O[C@@]3(C)[C@@H]12` was tested, and the Activity was “Active”.
With `C=C1C(=O)O[C@@H]2C[C@@H](C)[C@@H]3C=CC(=O)[C@@]3(C)[C@@H](O)[C@H]12` the Activity was “Active”.
With `C=C1C(=O)O[C@@H]2[C@H]3C(C)=CC(=O)C3=C(C)CC[C@@H]12` the Activity was “Active”.
`C=C1C(=O)O[C@H]2[C@H](O)[C@@H](C)[C@@H]3[C@@H](OC(=O)/C(C)=C\C)C[C@H](O)[C@@]3(C)[C@H](OC(C)=O)[C@H]12` was tested, and the Activity was “Active”.
`C=C1C(=O)O[C@H]2C[C@@H](C)[C@@H]3C=CC(=O)[C@@]3(C)[C@H](O)[C@H]12` was tested, and the Activity was “Active”.
